Measurements as given in publication PMC12649549, “Sequence Permutation Generated Lysine and Tryptophan-Rich Antimicrobial Peptides with Enhanced Therapeutic Index” (Antibiotics, 2025).

What follows are substances tested on S. aureus ATCC 6538 (assay: not given). Details: LYM broth, 0 mM NaCl; 16 h, 37 °C.
Method in brief: (§1)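 MICs came from CLSI broth microdilution, with 5 × 10^5 CFU/mL bacteria exposed to peptide at final 0.78–50 µg/mL. Media were MH broth or LYM broth (pH 7.4), the latter also adjusted for salt (NaCl 50–300 mM, MgCl2 0.5–2.5 mM) or acidity (pH 4.5–6.5); triplicate independent experiments.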

Substance | MIC [µg/mL]
Ac-KKKWRKWLKWLAK-NH2 [Peptide W5K12] | 1.56
Ac-WLKWLAKKKKWRK-NH2 [Peptide W5K05] | 3.13

Same assay, conditions: LYM broth, 0.5 mM MgCl2

Substance | MIC [µg/mL]
Ac-KKKWRKWLKWLAK-NH2 [Peptide W5K12] | 1.56
Ac-WLKWLAKKKKWRK-NH2 [Peptide W5K05] | 1.56

Same assay, conditions: LYM broth, 1.5 mM MgCl2

Substance | MIC [µg/mL]
Ac-KKKWRKWLKWLAK-NH2 [Peptide W5K12] | 1.56
Ac-WLKWLAKKKKWRK-NH2 [Peptide W5K05] | 1.56

Same assay, conditions: LYM broth, 2.5 mM MgCl2

Substance | MIC [µg/mL]
Ac-KKKWRKWLKWLAK-NH2 [Peptide W5K12] | 1.56
Ac-WLKWLAKKKKWRK-NH2 [Peptide W5K05] | 3.13

Same assay, conditions: LYM broth, 50 mM NaCl; 16 h, 37 °C

Substance | MIC [µg/mL]
Ac-KKKWRKWLKWLAK-NH2 [Peptide W5K12] | 1.56
Ac-WLKWLAKKKKWRK-NH2 [Peptide W5K05] | 3.13

Same assay, conditions: LYM broth, 100 mM NaCl; 16 h, 37 °C

Substance | MIC [µg/mL]
Ac-KKKWRKWLKWLAK-NH2 [Peptide W5K12] | 3.13
Ac-WLKWLAKKKKWRK-NH2 [Peptide W5K05] | 6.25

Same assay, conditions: LYM broth, 200 mM (NaCl); 16 h, 37 °C

Substance | MIC [µg/mL]
Ac-KKKWRKWLKWLAK-NH2 [Peptide W5K12] | 6.25
Ac-WLKWLAKKKKWRK-NH2 [Peptide W5K05] | 12.5

Same assay, conditions: LYM broth, 300 mM (NaCl); 16 h, 37 °C

Substance | MIC [µg/mL]
Ac-KKKWRKWLKWLAK-NH2 [Peptide W5K12] | 12.5
Ac-WLKWLAKKKKWRK-NH2 [Peptide W5K05] | 25

Same assay, conditions: LYM broth, pH 4.5

Substance | MIC [µg/mL]
Ac-KKKWRKWLKWLAK-NH2 [Peptide W5K12] | 3.13
Ac-WLKWLAKKKKWRK-NH2 [Peptide W5K05] | 3.13

Same assay, conditions: LYM broth, pH 5.5

Substance | MIC [µg/mL]
Ac-KKKWRKWLKWLAK-NH2 [Peptide W5K12] | 1.56
Ac-WLKWLAKKKKWRK-NH2 [Peptide W5K05] | 1.56

Same assay, conditions: LYM broth, pH 6.5

Substance | MIC [µg/mL]
Ac-KKKWRKWLKWLAK-NH2 [Peptide W5K12] | 1.56
Ac-WLKWLAKKKKWRK-NH2 [Peptide W5K05] | 1.56

Same assay, conditions: MH broth; 5 × 10^5 CFU/mL, 16 h, 37 °C; repeated three times

Substance | MIC [µg/mL]
Ac-KKKWRKWLKWLAK-NH2 [Peptide W5K12] | 3.13
Ac-WLKWLAKKKKWRK-NH2 [Peptide W5K05] | 12.5

What follows are substances tested on Pseudomonas aeruginosa Migula (ATCC 27853) (assay: not given). Details: LYM broth, 0 mM NaCl; 16 h, 37 °C.
Method in brief: as §1

Substance | MIC [µg/mL]
Ac-KKKWRKWLKWLAK-NH2 [Peptide W5K12] | 1.56
Ac-WLKWLAKKKKWRK-NH2 [Peptide W5K05] | 3.13

Same assay, conditions: LYM broth, 0.5 mM MgCl2

Substance | MIC [µg/mL]
Ac-KKKWRKWLKWLAK-NH2 [Peptide W5K12] | 1.56
Ac-WLKWLAKKKKWRK-NH2 [Peptide W5K05] | 3.13

Same assay, conditions: LYM broth, 1.5 mM MgCl2

Substance | MIC [µg/mL]
Ac-KKKWRKWLKWLAK-NH2 [Peptide W5K12] | 1.56
Ac-WLKWLAKKKKWRK-NH2 [Peptide W5K05] | 3.13

Same assay, conditions: LYM broth, 2.5 mM MgCl2

Substance | MIC [µg/mL]
Ac-KKKWRKWLKWLAK-NH2 [Peptide W5K12] | 3.13
Ac-WLKWLAKKKKWRK-NH2 [Peptide W5K05] | 6.25

Same assay, conditions: LYM broth, 50 mM NaCl; 16 h, 37 °C

Substance | MIC [µg/mL]
Ac-KKKWRKWLKWLAK-NH2 [Peptide W5K12] | 1.56
Ac-WLKWLAKKKKWRK-NH2 [Peptide W5K05] | 6.25

Same assay, conditions: LYM broth, 100 mM NaCl; 16 h, 37 °C

Substance | MIC [µg/mL]
Ac-KKKWRKWLKWLAK-NH2 [Peptide W5K12] | 3.13
Ac-WLKWLAKKKKWRK-NH2 [Peptide W5K05] | 12.5

Same assay, conditions: LYM broth, 200 mM (NaCl); 16 h, 37 °C

Substance | MIC [µg/mL]
Ac-KKKWRKWLKWLAK-NH2 [Peptide W5K12] | 6.25
Ac-WLKWLAKKKKWRK-NH2 [Peptide W5K05] | >50

Same assay, conditions: LYM broth, 300 mM (NaCl); 16 h, 37 °C

Substance | MIC [µg/mL]
Ac-KKKWRKWLKWLAK-NH2 [Peptide W5K12] | 12.5
Ac-WLKWLAKKKKWRK-NH2 [Peptide W5K05] | >50

Same assay, conditions: LYM broth, pH 4.5

Substance | MIC [µg/mL]
Ac-KKKWRKWLKWLAK-NH2 [Peptide W5K12] | 1.56
Ac-WLKWLAKKKKWRK-NH2 [Peptide W5K05] | 1.56

Same assay, conditions: LYM broth, pH 5.5

Substance | MIC [µg/mL]
Ac-KKKWRKWLKWLAK-NH2 [Peptide W5K12] | 1.56
Ac-WLKWLAKKKKWRK-NH2 [Peptide W5K05] | 1.56

Same assay, conditions: LYM broth, pH 6.5

Substance | MIC [µg/mL]
Ac-KKKWRKWLKWLAK-NH2 [Peptide W5K12] | 1.56
Ac-WLKWLAKKKKWRK-NH2 [Peptide W5K05] | 1.56

Same assay, conditions: MH broth; 5 × 10^5 CFU/mL, 16 h, 37 °C; repeated three times

Substance | MIC [µg/mL]
Ac-KKKWRKWLKWLAK-NH2 [Peptide W5K12] | 3.13
Ac-WLKWLAKKKKWRK-NH2 [Peptide W5K05] | 25

What follows are substances tested on A. baumannii 14B00100 (Acinetobacter sp., BCRC number 14B0100) (assay: not given). Details: LYM broth, 0 mM NaCl; 16 h, 37 °C.
Method in brief: as §1

Substance | MIC [µg/mL]
Ac-KKKWRKWLKWLAK-NH2 [Peptide W5K12] | 1.56
Ac-WLKWLAKKKKWRK-NH2 [Peptide W5K05] | 0.78

Same assay, conditions: LYM broth, 0.5 mM MgCl2

Substance | MIC [µg/mL]
Ac-KKKWRKWLKWLAK-NH2 [Peptide W5K12] | 1.56
Ac-WLKWLAKKKKWRK-NH2 [Peptide W5K05] | 1.56

Same assay, conditions: LYM broth, 1.5 mM MgCl2

Substance | MIC [µg/mL]
Ac-KKKWRKWLKWLAK-NH2 [Peptide W5K12] | 1.56
Ac-WLKWLAKKKKWRK-NH2 [Peptide W5K05] | 1.56

Same assay, conditions: LYM broth, 2.5 mM MgCl2

Substance | MIC [µg/mL]
Ac-KKKWRKWLKWLAK-NH2 [Peptide W5K12] | 3.13
Ac-WLKWLAKKKKWRK-NH2 [Peptide W5K05] | 1.56

Same assay, conditions: LYM broth, 50 mM NaCl; 16 h, 37 °C

Substance | MIC [µg/mL]
Ac-KKKWRKWLKWLAK-NH2 [Peptide W5K12] | 1.56
Ac-WLKWLAKKKKWRK-NH2 [Peptide W5K05] | 1.56

Same assay, conditions: LYM broth, 100 mM NaCl; 16 h, 37 °C

Substance | MIC [µg/mL]
Ac-KKKWRKWLKWLAK-NH2 [Peptide W5K12] | 1.56
Ac-WLKWLAKKKKWRK-NH2 [Peptide W5K05] | 3.13

Same assay, conditions: LYM broth, 200 mM (NaCl); 16 h, 37 °C

Substance | MIC [µg/mL]
Ac-KKKWRKWLKWLAK-NH2 [Peptide W5K12] | 1.56
Ac-WLKWLAKKKKWRK-NH2 [Peptide W5K05] | 6.25

Same assay, conditions: LYM broth, 300 mM (NaCl); 16 h, 37 °C

Substance | MIC [µg/mL]
Ac-KKKWRKWLKWLAK-NH2 [Peptide W5K12] | 1.56
Ac-WLKWLAKKKKWRK-NH2 [Peptide W5K05] | 12.5

Same assay, conditions: LYM broth, pH 4.5

Substance | MIC [µg/mL]
Ac-KKKWRKWLKWLAK-NH2 [Peptide W5K12] | 3.13
Ac-WLKWLAKKKKWRK-NH2 [Peptide W5K05] | 1.56

Same assay, conditions: LYM broth, pH 5.5

Substance | MIC [µg/mL]
Ac-KKKWRKWLKWLAK-NH2 [Peptide W5K12] | 3.13
Ac-WLKWLAKKKKWRK-NH2 [Peptide W5K05] | 1.56

Same assay, conditions: LYM broth, pH 6.5

Substance | MIC [µg/mL]
Ac-KKKWRKWLKWLAK-NH2 [Peptide W5K12] | 1.56
Ac-WLKWLAKKKKWRK-NH2 [Peptide W5K05] | 1.56

Same assay, conditions: MH broth; 5 × 10^5 CFU/mL, 16 h, 37 °C; repeated three times

Substance | MIC [µg/mL]
Ac-KKKWRKWLKWLAK-NH2 [Peptide W5K12] | 3.13
Ac-WLKWLAKKKKWRK-NH2 [Peptide W5K05] | 12.5

Each substance was assayed on S. aureus ATCC 33592 (assay: not given). Details: LYM broth, 0 mM NaCl; 16 h, 37 °C.
Method in brief: as §1

Substance | MIC [µg/mL]
Ac-KKKWRKWLKWLAK-NH2 [Peptide W5K12] | 3.13
Ac-WLKWLAKKKKWRK-NH2 [Peptide W5K05] | 6.25

Same assay, conditions: LYM broth, 0.5 mM MgCl2

Substance | MIC [µg/mL]
Ac-KKKWRKWLKWLAK-NH2 [Peptide W5K12] | 3.13
Ac-WLKWLAKKKKWRK-NH2 [Peptide W5K05] | 12.5

Same assay, conditions: LYM broth, 1.5 mM MgCl2

Substance | MIC [µg/mL]
Ac-KKKWRKWLKWLAK-NH2 [Peptide W5K12] | 3.13
Ac-WLKWLAKKKKWRK-NH2 [Peptide W5K05] | 12.5

Same assay, conditions: LYM broth, 2.5 mM MgCl2

Substance | MIC [µg/mL]
Ac-KKKWRKWLKWLAK-NH2 [Peptide W5K12] | 3.13
Ac-WLKWLAKKKKWRK-NH2 [Peptide W5K05] | 12.5

Same assay, conditions: LYM broth, 50 mM NaCl; 16 h, 37 °C

Substance | MIC [µg/mL]
Ac-KKKWRKWLKWLAK-NH2 [Peptide W5K12] | 3.13
Ac-WLKWLAKKKKWRK-NH2 [Peptide W5K05] | 12.5

Same assay, conditions: LYM broth, 100 mM NaCl; 16 h, 37 °C

Substance | MIC [µg/mL]
Ac-KKKWRKWLKWLAK-NH2 [Peptide W5K12] | 3.13
Ac-WLKWLAKKKKWRK-NH2 [Peptide W5K05] | 12.5

Same assay, conditions: LYM broth, 200 mM (NaCl); 16 h, 37 °C

Substance | MIC [µg/mL]
Ac-KKKWRKWLKWLAK-NH2 [Peptide W5K12] | 6.25
Ac-WLKWLAKKKKWRK-NH2 [Peptide W5K05] | 25

Same assay, conditions: LYM broth, 300 mM (NaCl); 16 h, 37 °C

Substance | MIC [µg/mL]
Ac-KKKWRKWLKWLAK-NH2 [Peptide W5K12] | 12.5
Ac-WLKWLAKKKKWRK-NH2 [Peptide W5K05] | 50

Same assay, conditions: LYM broth, pH 4.5

Substance | MIC [µg/mL]
Ac-KKKWRKWLKWLAK-NH2 [Peptide W5K12] | 3.13
Ac-WLKWLAKKKKWRK-NH2 [Peptide W5K05] | 6.25

Same assay, conditions: LYM broth, pH 5.5

Substance | MIC [µg/mL]
Ac-KKKWRKWLKWLAK-NH2 [Peptide W5K12] | 3.13
Ac-WLKWLAKKKKWRK-NH2 [Peptide W5K05] | 6.25

Same assay, conditions: LYM broth, pH 6.5

Substance | MIC [µg/mL]
Ac-KKKWRKWLKWLAK-NH2 [Peptide W5K12] | 1.56
Ac-WLKWLAKKKKWRK-NH2 [Peptide W5K05] | 3.13

Same assay, conditions: MH broth; 5 × 10^5 CFU/mL, 16 h, 37 °C; repeated three times

Substance | MIC [µg/mL]
Ac-KKKWRKWLKWLAK-NH2 [Peptide W5K12] | 6.25
Ac-WLKWLAKKKKWRK-NH2 [Peptide W5K05] | 50

What follows are substances tested on Gram-negative bacteria (assay: Geometric mean MIC and therapeutic index, Gram-negative bacteria). Details: Gram-negative bacteria, MH broth; MIC >50 µg/mL counted as 100 µg/mL.
Assay type: cell-based
Method in brief: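 Overnight MH cultures were regrown and diluted to 5 × 10^5 CFU/mL, then exposed to peptides at 0.78–50 µg/mL final in MH or modified LYM broth following CLSI microdilution. MICs were combined into geometric means, and TI was computed as HC10 (human red blood cells) divided by GM.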

Substance | GM G− (geometric mean of the MIC values) [µg/mL]
Ac-KKKWRKWLKWLAK-NH2 [Peptide W5K12] | 2.4
Ac-WLKWLAKKKKWRK-NH2 [Peptide W5K05] | 12.5

Same assay, conditions: HC10/GM, Gram-negative bacteria

Substance | Therapeutic Index (TI) G−
Ac-KKKWRKWLKWLAK-NH2 [Peptide W5K12] | 17.6
Ac-WLKWLAKKKKWRK-NH2 [Peptide W5K05] | 8.7
